Measured values taken from PMC10724190, “Phytochemical screening and biological evaluation of Greek sage (Salvia fruticosa Mill.) extracts” (Scientific Reports, 2023).
pIC50: −log10 of the molar value.

Columns and labels:
[1] = target: microbial XO (xanthine oxidase); assay: Xanthine oxidase inhibitory activity, HPLC-PAD monitoring of uric acid formation; type: biochemical; details: for IC50, mass of standard or dry weight of sample capable of reducing XO activity to 50%: 15 min preincubation, 60 min at 25 °C, xanthine substrate; for pIC50: read-out: IC50 of XO inhibition as concentration
Description: The transformation of xanthine (substrate) to uric acid (product) by XO with or without the presence of tested samples was monitored with the use of HPLC-PAD at 285 nm (Fig. 3a). The enzyme activity was calculated as the percentage of the uric acid peak area formed in the presence of the tested sample compared to the control without the addition of the sample (Fig. 3b). The inhibition of the XO enzyme was expressed as an IC50 value, meaning the mass of standard or dry weight of sample (μg) capable of reducing enzyme activity to 50% (Fig. 3b,c).
The ability of – caffeic acid, carnosic acid, carnosol, rosmarinic acid, salvianolic acid B and scutellarin, as well as S. fruticosa extracts – to inhibit XO was determined. The stock solutions of xanthine (substrate) and uric acid (product) (1.5 mM) were prepared in an NaOH aqueous solution (1 M). The working solutions of these compounds (150 μM) were prepared by dilution of stock solutions with a phosphate buffer (10 mM, pH 7.7). An enzyme solution with an activity of approximately 0.5 U/mL was prepared in the same phosphate buffer. The same buffer was also used to dilute stock solutions of phytochemical standards and S. fruticosa extracts. The diluted samples with different concentrations of standard or plant extract (85 µL) were mixed with an XO solution (30 µL) and preincubated for 15 min at 25 °C, followed by the addition of 60 µL of a 150 µM xanthine solution (substrate). The mixtures were incubated for 60 min at 25 °C, then 25 µL of HCl solution (1 M) was added to stop the enzymatic reaction.
The samples were analyzed using an HPLC-PAD system (1200 series, Agilent Technologies, Wilmington, DE, USA) equipped with a Kinetex® column (150 × 4.6 mm, 5 µm, Phenomenex). A two-component mobile phase was used, in which component A was water acidified with formic acid (1%) and component B was methanol. The mobile phase was pumped at flow rate of 1 mL/min according to the gradient elution program: 0 min – 100% A, 8 min – 18% B, 12 min – 80% B, 18 min – 100% B and finally, the initial conditions were held for 5 min as a re-equilibration step. The injection volume was 30 μL. The inhibition of the XO enzyme was expressed as an IC50 value, meaning the mass of standard or dry weight of the sample (μg) that could reduce enzyme activity to 50%. Enzyme activity was calculated as the percentage of the uric acid peak area (RT 3.1 min) that was formed in the presence of extracts compared to the control sample without the addition of extracts.

[2] = Total antioxidant activity, ABTS, DPPH and F–C tests taken together; details: reference antioxidant trolox
Description: The presented study compared the results of the three most popular spectrophotometric tests using ABTS, DPPH and Folin–Ciocalteu (F–C) reagents. ABTS and DPPH assays are used widely to determine free radical scavenging activity of extracts, as are pure compounds. For S. fruticosa extracts, the calculated antioxidant activity describes the number of ABTS or DPPH molecules reduced by antioxidants derived from 1 g of dried material after 10 min of reaction. These values were calculated in the linear range of the method and expressed as the slope of the line describing the relationship between the number of reduced millimoles of oxidants and various amounts of tested samples – as grams of dry matter in reaction mixtures (Fig. 2b).
The study also includes the method with the Folin–Ciocalteu reagent. It consists in the transfer of electrons in an alkaline environment from compounds with active hydroxyl groups to phosphomolybdic phosphotungstic acid complexes. The reducing capacity in this case was expressed as the number of millimoles of gallic acid equivalents, that formed blue complex and were derived from 1 g of dry matter of the plant. […]
The antioxidant activity of – caffeic acid, carnosic acid, carnosol, rosmarinic acid, salvianolic acid B, scutellarin and S. fruticosa extracts – was determined by spectrophotometric tests using ABTS, DPPH and Folin–Ciocalteu (F–C) reagents. […] For tests with radicals, the data were used to generate a plot of linear dependence between the different content of tested standards or S. fruticosa samples calculated as gram of dry weight present in the reaction mixtures and the number of scavenged millimoles of ABTS or DPPH radical. […] For the F–C test the results were calculated using the calibration curve of gallic acid. The antioxidant activity of the tested samples was expressed as a slope of the line that represents the relationship between the mass of standards or plant material [g] and amount of gallic acid equivalents [mmol] present in reaction mixtures after 60 min.

Row | Compound | IC50, mass of standard or dry weight of sample capable of reducing XO activity to 50% [1] [µg] | pIC50 [1] | Antioxidant activity compared with trolox [2]
1 | O=C(O)/C=C/c1ccc(O)c(O)c1 [Caffeic acid] | 0.1 | 5.55 | more efficient than trolox
2 | Oc1ncnc2[nH]ncc12 [allopurinol] | 0.15 | 5.26 | 
3 | O=C(/C=C/c1ccc(O)c(O)c1)O[C@H](Cc1ccc(O)c(O)c1)C(=O)O [rosmarinic acid, Rosmarinic acid] |  | 4.36 | more efficient than trolox
4 | Salvianolic acid B |  |  | more efficient than trolox
